According to ChEMBL document CHEMBL1821665, “Structure-based design and optimization of potent renin inhibitors on 5- or 7-azaindole-scaffolds” (Bioorg Med Chem Lett, 2011):

What was measured:
Renin [1] = target: T1, Renin (Homo sapiens, UniProt P00797); assay: Inhibition of recombinant human renin using Dabcyl-gamma-Abu-Ile-His-Pro-Phe-His-Leu-Val-Ile-His-Thr-EDANS as substrate after 2 hrs by spectrofluorometry
T1 sequence (P00797 whole entry): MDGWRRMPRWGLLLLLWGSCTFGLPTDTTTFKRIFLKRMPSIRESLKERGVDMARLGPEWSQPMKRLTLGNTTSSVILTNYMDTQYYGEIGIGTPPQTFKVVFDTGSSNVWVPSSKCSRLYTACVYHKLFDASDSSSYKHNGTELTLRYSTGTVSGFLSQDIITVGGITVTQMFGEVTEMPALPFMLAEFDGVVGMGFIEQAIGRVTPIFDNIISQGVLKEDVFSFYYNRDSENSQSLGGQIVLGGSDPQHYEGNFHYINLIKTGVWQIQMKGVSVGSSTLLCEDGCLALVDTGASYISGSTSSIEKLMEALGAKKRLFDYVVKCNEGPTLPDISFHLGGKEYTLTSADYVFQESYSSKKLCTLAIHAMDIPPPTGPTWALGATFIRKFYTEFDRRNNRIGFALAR

Renin [2] = target: T1, Renin; assay: Inhibition of recombinant human renin using Dabcyl-gamma-Abu-Ile-His-Pro-Phe-His-Leu-Val-Ile-His-Thr-EDANS as substrate preincubated for 30 mins followed by 30 mins incubation in human plasma by spectrofluorometry
Renin [3] = target: T1, Renin; assay: Inhibition of recombinant human renin using Dabcyl-gamma-Abu-Ile-His-Pro-Phe-His-Leu-Val-Ile-His-Thr-EDANS as substrate preincubated for 30 mins followed by 30 mins incubation in mouse C57BL/6 plasma by spectrofluorometry
[4] = Apparent permeability from apical to basolateral side of human Caco2/TC7 cells at 20 uM after 2 hrs in presence of 0.5 to 5% BSA at pH 6.5 to 7.4; assay type: ADME, cell-based; settings: Caco-2, pH 6.5

In the case of `O=C(c1c(Oc2ccccc2)n(-c2ccccc2)c2ncccc12)N1CCNCC1`, the IC50 (Renin [1]) is reported as 1.83 µM.

Molecule `Cc1ccccc1Oc1c(C(=O)N2CCNCC2)c2cccnc2n1-c1ccccc1` has an IC50 (Renin [1]) of 0.098 µM.

`O=C(c1c(Oc2ccccc2F)n(-c2ccccc2)c2ncccc12)N1CCNCC1` gave an IC50 (Renin [1]) of 5.06 µM.

`Cc1cccc(F)c1Oc1c(C(=O)N2CCNCC2)c2cccnc2n1-c1ccccc1` gave an IC50 (Renin [1]) of 0.231 µM.

In the case of `Cc1ccc(F)cc1Oc1c(C(=O)N2CCNCC2)c2cccnc2n1-c1ccccc1`, the IC50 (Renin [1]) is reported as 0.396 µM.

Molecule `Cc1c(F)cc(F)cc1Oc1c(C(=O)N2CCNCC2)c2cccnc2n1-c1ccccc1` has an IC50 (Renin [1]) of 0.504 µM.

`O=C(c1c(Cc2ccccc2)n(-c2ccccc2)c2ncccc12)N1CCNCC1` gave an IC50 (Renin [1]) of 6.41 µM.

In the case of `Cc1ccc(F)cc1Oc1c(C(=O)N2CCNCC2)c2cc(O)cnc2n1-c1ccccc1`, the IC50 (Renin [1]) is reported as 0.006 µM, the IC50 (Renin [2]) is reported as 0.189 µM and the IC50 (Renin [3]) is reported as 0.057 µM. The Papp A→B at 2 h, 20 µM [4] was 4.5 nm/s.

With `Cc1c(F)cccc1Cc1c(C(=O)N2CCNCC2)c2cc(O)cnc2n1-c1ccccc1` the IC50 (Renin [1]) was 0.006 µM, the IC50 (Renin [2]) was 0.095 µM and the IC50 (Renin [3]) was 0.159 µM.

Work on `COc1cnc2c(c1)c(C(=O)N1CCNCC1)c(Cc1cccc(F)c1C)n2-c1ccccc1` yielded an IC50 (Renin [1]) of 4.67 µM.

`COc1ccc2c(C(=O)N3CCNCC3)c(Oc3cc(F)ccc3C)n(-c3ccccc3)c2n1` showed an IC50 (Renin [1]) of 0.015 µM.

`CCc1ccnc2c1c(C(=O)N1CCNCC1)c(Oc1cc(F)ccc1C)n2-c1ccccc1` showed an IC50 (Renin [1]) of 1.23 µM.

`CCc1ccnc2c1c(C(=O)N1CCNCC1)c(Cc1cccc(F)c1C)n2-c1ccccc1` gave an IC50 (Renin [1]) of 0.089 µM.

`CCCc1ccnc2c1c(C(=O)N1CCNCC1)c(Oc1c(C)cccc1C)n2-c1ccccc1` showed an IC50 (Renin [1]) of 0.186 µM.

`CCCc1ccnc2c1c(C(=O)N1CCNCC1)c(Cc1cccc(F)c1C)n2-c1ccccc1` gave an IC50 (Renin [1]) of 0.218 µM.

`Cc1ccccc1Oc1c(C(=O)N2CCNCC2)c2cnccc2n1-c1ccccc1` gave an IC50 (Renin [1]) of 0.847 µM.

For `Cc1ccc(F)cc1Oc1c(C(=O)N2CCNCC2)c2cnccc2n1-c1ccccc1`, the IC50 (Renin [1]) was 0.123 µM.

`Cc1c(F)cccc1Oc1c(C(=O)N2CCNCC2)c2cnccc2n1-c1ccccc1` gave an IC50 (Renin [1]) of 0.181 µM.

For `Cc1c(F)cc(F)cc1Oc1c(C(=O)N2CCNCC2)c2cnccc2n1-c1ccccc1`, the IC50 (Renin [1]) was 0.65 µM.

`O=C(c1c(Cc2ccccc2)n(-c2ccccc2)c2ccncc12)N1CCNCC1` gave an IC50 (Renin [1]) of 3.4 µM.

`Cc1ccccc1Cc1c(C(=O)N2CCNCC2)c2cnccc2n1-c1ccccc1` gave an IC50 (Renin [1]) of 0.52 µM.

For `Cc1c(F)cccc1Cc1c(C(=O)N2CCNCC2)c2cnccc2n1-c1ccccc1`, the IC50 (Renin [1]) was 0.008 µM, the IC50 (Renin [2]) was 0.2 µM and the IC50 (Renin [3]) was 0.41 µM. It also gave a Papp A→B at 2 h, 20 µM [4] of 6.4 nm/s.

Work on `COc1cc2c(cn1)c(C(=O)N1CCNCC1)c(Cc1cccc(F)c1C)n2C1CCCCC1` yielded an IC50 (Renin [1]) of 0.15 µM.

Work on `COc1cc2c(cn1)c(C(=O)N1CCNCC1)c(Cc1cccc(F)c1C)n2-c1ccccc1` yielded an IC50 (Renin [1]) of 0.006 µM, an IC50 (Renin [2]) of 0.328 µM and a Papp A→B at 2 h, 20 µM [4] of 22 nm/s.

Work on `COc1cc2c(cn1)c(C(=O)N1CCNCC1)c(Oc1cc(F)ccc1C)n2-c1ccccc1` yielded an IC50 (Renin [1]) of 0.073 µM.

With `Cc1ccc(F)cc1Oc1c(C(=O)N2CCNCC2)c2cnc(O)cc2n1-c1ccccc1` the IC50 (Renin [1]) was 0.024 µM.

With `Cc1c(F)cccc1Cc1c(C(=O)N2CCNCC2)c2cnc(O)cc2n1C1CCCCC1` the IC50 (Renin [1]) was 0.116 µM.

Molecule `Cc1c(F)cccc1Cc1c(C(=O)N2CCNCC2)c2cnc(O)cc2n1-c1ccccc1` has an IC50 (Renin [1]) of 0.088 µM.

`COc1cc2c(cn1)c(C(=O)N1CCNCC1)c(Oc1c(C)cccc1C)n2C1CCCCC1` gave an IC50 (Renin [1]) of 0.099 µM.

For `Cc1ccc(F)c(C)c1Oc1c(C(=O)N2CCNCC2)c2cnc(O)cc2n1C1CCCCC1`, the IC50 (Renin [1]) was 0.098 µM.

For `Cc1ccc(F)cc1Oc1c(C(=O)N2CCN[C@@H](C)C2)c2cnc(O)cc2n1C1CCCCC1`, the IC50 (Renin [1]) was 0.011 µM.

In the case of `Cc1ccc(F)c(C)c1Oc1c(C(=O)N2CCN[C@@H](C)C2)c2c[nH]c(=O)cc2n1C1CCCCC1`, the IC50 (Renin [1]) is reported as 0.037 µM.

For `Cc1c(F)cccc1Cc1c(C(=O)N2CCN[C@@H](C)C2)c2c[nH]c(=O)cc2n1C1CCCCC1`, the IC50 (Renin [1]) was 0.154 µM.

`COC[C@H]1CN(C(=O)c2c(Cc3cccc(F)c3C)n(C3CCCCC3)c3cc(OC)ncc23)CCN1` gave an IC50 (Renin [1]) of 4.09 µM.

Molecule `COc1cc2c(cn1)c(C(=O)N1CCN[C@@H](CO)C1)c(Cc1cccc(F)c1C)n2C1CCCCC1` has an IC50 (Renin [1]) of 3.26 µM.
